This note sets out measurements from ChEMBL document CHEMBL1201862, “PubChem BioAssay data set” (2004).

Holding throughout (test): NCI tumour cell line growth inhibition, 48 h
Assay [1] relates to COLO 205.
In assay [2] the test system is U-251.
Assay [3] concerns PC-3.
In assay [4] the test system is HOP-62.
In assay [5] the test system is MOLT-4.
The test system of assay [6] is UO-31.
Assay [7] has as its system CAKI-1.
Assay [8] has as its system Malme-3M.
Assay [9] concerns K562.
The test system of assay [10] is SNB-75.
Assay [11] has as its system HL-60.
In assay [12] the test system is SF-539.
The test system of assay [13] is NCI-H522.
Assay [14] deals with NCI-H460.
Assay [15] relates to SN12C.
Assay [16] deals with M14.
Assay [17] concerns SK-MEL-28.
The subject of assay [18] is TK-10.
Assay [19] relates to RXF 393.
Assay [20] has as its system LOX IMVI.

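All cell lines were grown in 96-well plates and treated with compound for 48 hours. At the GI50, growth is halved.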 Activity calls are given as the source filed them. No stated cut-off is given here; in the data, active = GI50 up to about 1.1 µM and inactive = higher.

Regarding `C1CN2CCNCCN(CCN1)CC2`, the GI50 in assay [1], in assay [2], in [3], in assay [4], in assay [5] and in [6] was > 100 µM (inactive) throughout. For the same compound, the GI50 in [7] was > 100 µM (inactive); in assay [8], > 100 µM (inactive); in assay [9], > 100 µM (inactive); in assay [10], > 100 µM (inactive); in [11] it was 20.9 µM (inactive); in assay [12], > 100 µM (inactive). The GI50 in [13], in assay [14], in assay [15], in [16], in assay [17] and in [18] was > 100 µM (inactive) throughout. Moreover, the GI50 in [19] and in [20] was > 100 µM (inactive) throughout.

On to `CC(=O)O[C@H]1C(=O)[C@@]2(C)C(C(OC(=O)c3ccccc3)[C@]3(O)C[C@H](OC(=O)C(OC(=O)CCCC(=O)NCCCN(C)C)C(NC(=O)c4ccccc4)c4ccccc4)C(C)=C1C3(C)C)C1(OC(C)=O)COC1C[C@@H]2O` (stereo not given in full), for which the GI50 is < 0.01 µM (active) in [1]; < 0.01 µM (active) in assay [2]; < 0.01 µM (active) in assay [3]; 0.016 µM (active) in assay [4]; < 0.01 µM (active) in assay [5]; 1.02 µM (active) in [6]. In addition, the GI50 in [7] is 0.859 µM (active); in assay [8], < 0.01 µM (active); in assay [9], < 0.01 µM (active); in assay [10], < 0.01 µM (active); in assay [11], < 0.01 µM (active); in assay [12] it was < 0.01 µM (active). In addition, the GI50 is < 0.01 µM (active) in assay [13]; < 0.01 µM (active) in assay [14]; < 0.0122 µM (active) in assay [15]; < 0.01 µM (active) in assay [16]; < 0.01 µM (active) in [17]; 0.0425 µM (active) in [18]. The GI50 in assay [19] was 0.0171 µM (active); in assay [20] it was < 0.01 µM (active).
